Read-outs that look alike come from different tables or passages of the source.
What was measured:
[1] = cited from earlier work
[2] = Bioavailability of 23CPPA in male rats (oral vs intravenous); format: in vivo; details: rat, single dose oral 30 mg/kg vs intravenous 3.0 mg/kg, plasma LC-MS-MS
Procedure: Male rats were given a single dose of 23CPPA by the oral route (30 mg/kg) or by the intravenous route (3.0 mg/kg). Timed samples of blood were collected before and after dosing, and plasma concentrations of the compound were determined with LC-MS-MS analysis.

[3] = Plasma levels of 23CPPA following oral administration in rats; format: in vivo, rat; details: for AUC(0-t) / half-life: plasma, rat; for AUC(0-t) / Cmax / half-life: po; for AUC(0-t): read-out: AUC0-24; for Cmax: read-out: maximal concentration (Cmax)
Procedure: Concentrations of compound in rat plasma were measured at timed intervals after administration by gavage of 25 and 75 mg per kilogram of body weight of the sodium salt of 23CPPA. […] Plasma concentrations of the compound readily declined after reaching maximal concentration and the elimination half-life (T^1/2) was about 2 hours. The extent of systemic exposure of animals to 23CPPA, characterized by the area under the curve from 0 to 24 hours after administration (AUC0-24), increased with increasing dosage, was approximately dose proportional, and encompassed levels representing therapeutic ranges.

[4] = Brain and plasma levels of 23CPPA following oral administration in rats (HPLC/MS/MS); format: in vivo; details: rat; for concentration at 1 h: 1 hour after dose; for concentration at 4 h: 4 hours after dose; for concentration at 6 h: 6 hours after dose
Procedure: Rat hemi brains were obtained 1, 4 and 6 hours after administration by gavage of the sodium salt of 23CPPA at doses of 15 and 60 mg/kg and were mixed with two equivalents of water and homogenized. The resulting homogenate was extracted into acetonitrile containing internal standard and concentrations of the compound were analyzed by high pressure liquid chromatography/two stage mass spectrometry (HPLC/MS/MS). Plasma samples also were collected from the same rats at these time points for measurement of plasma concentrations of the compound.

[5] = Plasma levels of 23CPPA after oral administration to humans; format: in vivo, human; details: for AUC(0-t): read-out: AUC0-24
Procedure: Plasma concentrations were measured at timed intervals after oral administration of a single dose of 50 to 1000 mg of the sodium salt of 23CPPA. […] The extent of systemic exposure of subjects to 23CPPA, characterized by the area under the curve from 0 to 24 hours after administration (AUC0-24), increased with increasing dosage from 50 to 1000 mg and was approximately dose proportional. The human pharmacokinetic findings closely resemble those in rats according to the human equivalent dose as shown in Example 2.

[6] = tested on: Mammalian cell cultures expressing human Amyloid Protein Precursor (APP); assay: Production of Aβ40 and Aβ42 peptides in culture supernatants, enzyme-linked immunoassay; format: cell-based; details: sodium salt at 10, 50 and 100 micromolar, vs DMSO control
Procedure: FIG. 1 is a chart diagram representing an exemplary embodiment of 23CPPA lowering production of amyloidogenic Aβ42 peptide. Mammalian cell cultures expressing human Amyloid Protein Precursor (APP) were treated with the sodium salt of 23CPPA at concentrations of 10, 50 and 100 micromolar. The culture supernatants were analyzed by enzyme-linked immunoassay for the Aβ40 and Aβ42 peptides. Results were compared to control values obtained from cells treated with DMSO. […] Mammalian cell cultures expressing human Amyloid Protein Precursor (APP) were treated with the sodium salt of 23CPPA at concentrations of 10, 50 and 100 micromolar. The culture supernatants were analyzed by enzyme-linked immunoassay for the Aβ40 and Aβ42 peptides. Results were compared to control values obtained from cells treated with DMSO.

[7] = tested on: human hepatocytes; assay: Metabolic conversion after incubation with human hepatocytes (mass spectrometry); format: in vitro ADME
Procedure: After incubation of 23CPPA with human hepatocytes, samples were analyzed using mass spectrometry to establish metabolic conversion of the compound.

[8] = target: COX1 (Homo sapiens, UniProt P23219); details: background statement, no test described; cited from earlier work
COX1, sequence (P23219 24-599): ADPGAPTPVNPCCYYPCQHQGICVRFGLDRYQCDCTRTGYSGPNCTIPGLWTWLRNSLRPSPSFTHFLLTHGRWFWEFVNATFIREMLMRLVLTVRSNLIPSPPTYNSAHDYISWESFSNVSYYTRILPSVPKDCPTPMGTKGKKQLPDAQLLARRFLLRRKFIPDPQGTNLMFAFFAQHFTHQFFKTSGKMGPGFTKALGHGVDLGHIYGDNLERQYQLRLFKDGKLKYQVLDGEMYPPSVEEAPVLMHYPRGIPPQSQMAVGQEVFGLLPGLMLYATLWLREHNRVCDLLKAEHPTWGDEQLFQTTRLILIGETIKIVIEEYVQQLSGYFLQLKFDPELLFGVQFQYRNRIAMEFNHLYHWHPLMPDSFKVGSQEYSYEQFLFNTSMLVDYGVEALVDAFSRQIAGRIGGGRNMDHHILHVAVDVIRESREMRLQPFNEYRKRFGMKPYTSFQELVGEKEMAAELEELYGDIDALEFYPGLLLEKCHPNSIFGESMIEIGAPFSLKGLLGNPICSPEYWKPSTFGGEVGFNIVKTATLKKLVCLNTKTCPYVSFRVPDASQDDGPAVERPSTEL

[9] = target: T1, COX2 (Homo sapiens, UniProt P35354); details: background statement, no test described; cited from earlier work
T1 sequence (P35354 18-604): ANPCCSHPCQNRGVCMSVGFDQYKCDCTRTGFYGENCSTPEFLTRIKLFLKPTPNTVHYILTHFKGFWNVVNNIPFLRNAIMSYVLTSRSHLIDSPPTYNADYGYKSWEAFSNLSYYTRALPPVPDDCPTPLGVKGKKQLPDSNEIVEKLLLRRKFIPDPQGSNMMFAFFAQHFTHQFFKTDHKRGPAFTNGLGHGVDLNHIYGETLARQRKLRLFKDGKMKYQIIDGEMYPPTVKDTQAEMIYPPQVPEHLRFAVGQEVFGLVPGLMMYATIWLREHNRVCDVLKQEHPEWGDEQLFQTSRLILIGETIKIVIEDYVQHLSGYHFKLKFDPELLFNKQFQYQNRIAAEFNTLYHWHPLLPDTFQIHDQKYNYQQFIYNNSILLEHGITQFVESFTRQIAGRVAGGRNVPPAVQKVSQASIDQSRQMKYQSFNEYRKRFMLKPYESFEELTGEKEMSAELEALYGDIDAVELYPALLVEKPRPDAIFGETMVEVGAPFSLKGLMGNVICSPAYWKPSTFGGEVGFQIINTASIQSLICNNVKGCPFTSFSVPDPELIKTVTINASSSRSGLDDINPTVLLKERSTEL

[10] = tested on: diabetic rodents; details: chronic administration, cited from earlier work
[11] = blood, gavage 15 mg/kg sodium salt, read-out: Blood concentration
[12] = blood, gavage 60 mg/kg sodium salt, read-out: Blood concentration
[13] = brain, gavage 15 mg/kg sodium salt, read-out: Brain concentration
[14] = brain, gavage 60 mg/kg sodium salt, read-out: Brain concentration

For `C[C@@H](C(=O)O)c1ccc(-c2ccccc2)c(F)c1` [R-flurbiprofen], the “fraction converted in vivo to S-flurbiprofen” value [1] is given as 22-30%.

`O=C(O)Cc1ccccc1Nc1cccc(Cl)c1` [23CPPA, 2-[(3-chlorophenyl)amino]phenylacetic acid] showed a bioavailability [2] of 85%, an AUC(0-t) ([3]; gavage 25 mg/kg body wt. sodium salt) of 26600 ng·h/mL and an AUC(0-t) ([3]; gavage 75 mg/kg body wt. sodium salt) of 94000 ng·h/mL. The Cmax ([3]; rat plasma, gavage 25 mg/kg sodium salt) was 9500 ng/mL, the Cmax ([3]; rat plasma, gavage 75 mg/kg sodium salt) was 25000 ng/mL and the “Time of maximal concentration (Tmax)” value ([3]; rat plasma, gavage 25 and 75 mg/kg sodium salt) was “within one hour”. For the same molecule, the half-life ([3]; 25 mg/kg, gavage 25 mg/kg body wt. sodium salt, read-out: T1/2 (converted)) was 2.45 h, the half-life ([3]; 75 mg/kg, rat plasma, gavage 25 and 75 mg/kg sodium salt, read-out: elimination half-life (T1/2) (converted)) was about 2 h and the half-life ([3]; 75 mg/kg, gavage 75 mg/kg body wt. sodium salt, read-out: T1/2 (converted)) was 1.95 h. For the same molecule, the concentration at 1 h [4, 11] was 27 µM, the concentration at 4 h [4, 11] was 4 µM and the concentration at 6 h [4, 11] was 3 µM. The concentration at 1 h [4, 12] was 57 µM, the concentration at 4 h [4, 12] was 28 µM and the concentration at 6 h [4, 12] was 22 µM. It also gave a concentration at 1 h [4, 13] of 76 µM, a concentration at 4 h [4, 13] of 12.4 µM and a concentration at 6 h [4, 13] of 11.9 µM. It also gave a concentration at 1 h [4, 14] of 148 µM, a concentration at 4 h [4, 14] of 61 µM and a concentration at 6 h [4, 14] of 45 µM. For the same molecule, the Cmax ([5]; human plasma, single oral dose of 50 to 1000 mg sodium salt, read-out: maximal concentrations (Cmax)) was 200 to 15600 ng/mL, the Tmax ([5]; plasma, human, all dosage groups, single oral dose 50 to 1000 mg sodium salt, read-out: mean time of maximal concentration (Tmax)) was 1.74 h and the AUC(0-t) ([5]; plasma, human, single oral dose 50 mg (0.7 mg/kg body wt)) was 4480 ng·h/mL. It also gave a half-life ([5]; plasma, human, single oral dose 50 mg (0.7 mg/kg body wt), read-out: T1/2 (converted)) of 1.55 h, an AUC(0-t) ([5]; plasma, human, single oral dose 100 mg (1.3 mg/kg body wt)) of 11000 ng·h/mL and a half-life ([5]; plasma, human, single oral dose 100 mg (1.3 mg/kg body wt), read-out: T1/2 (converted)) of 1.5 h. The AUC(0-t) ([5]; plasma, human, single oral dose 250 mg (3.0 mg/kg body wt)) was 27300 ng·h/mL, the half-life ([5]; plasma, human, single oral dose 250 mg (3.0 mg/kg body wt), read-out: T1/2 (converted)) was 1.35 h and the AUC(0-t) ([5]; plasma, human, single oral dose 500 mg (6.0 mg/kg body wt)) was 54000 ng·h/mL. For the same molecule, the half-life ([5]; plasma, human, single oral dose 500 mg (6.0 mg/kg body wt), read-out: T1/2 (converted)) was 1.5 h, the AUC(0-t) ([5]; plasma, human, single oral dose 750 mg (9.0 mg/kg body wt)) was 66600 ng·h/mL and the half-life ([5]; plasma, human, single oral dose 750 mg (9.0 mg/kg body wt), read-out: T1/2 (converted)) was 2.33 h. For the same molecule, the AUC(0-t) ([5]; plasma, human, single oral dose 1000 mg (12.3 mg/kg body wt)) was 100000 ng·h/mL, the half-life ([5]; plasma, human, single oral dose 1000 mg (12.3 mg/kg body wt), read-out: T1/2 (converted)) was 2.38 h and the half-life ([5]; plasma, human, single oral dose 50 to 1000 mg sodium salt, read-out: mean elimination half-life (T1/2) (converted)) was 1.77 h. The “amount of Aβ40” value [6] was “without proportionate change”, the “amount of Aβ42” value [6] was “dose-dependent reduction” and the “total Aβ values” [6] was “without proportionate change”. For the same molecule, the conversion products identified ([7]; incubation with human hepatocytes, mass spectrometry) was “hydroxylation and loss of water products and glucuronide conjugates”, the “conversion to COX-inhibitory compound” value ([7]; structures of conversion products from human hepatocytes) was “none of which had structures compatible with COX-inhibitory activity” and the “inhibition of cyclooxygenase enzyme COX1” value [8] was “is not a pharmacologic inhibitor”. The “inhibition of cyclooxygenase enzyme COX2” value [9] was “is not a pharmacologic inhibitor”, the “concentration of glycated albumin” value ([10]; persistent hyperglycemia) was “lowers the concentration of glycated albumin” and the “structural and functional abnormalities characteristic of diabetic kidney disease” value [10] was “ameliorates the structural and functional abnormalities”.
